Patent US20240350476A1 (priority 2023, published 2024)

Assays:
[1] = measured approximately 1 minute after placing the pouch adjacent to the gum line; five blindfolded volunteer subjects, one-hour break between tests
Method: Five volunteer subjects compared the effects of nicotine consumption and 6-methylnicotine consumption on blood pressure Subjects were blindfolded and had their blood pressure measured before using a pouch (to provide a baseline blood pressure) and re-measured approximately 1 minute after placing a nicotine pouch or a 6-methylnicotine pouch adjacent to the gum line. All subjects performed the test with a nicotine pouch and with a 6-methylnicotine pouch on the same day with a one-hour break between the tests.

[2] = Method: Six volunteer subjects who are regular users of nicotine pouches containing 8 mg of nicotine were each administered an oral pouch of the disclosure containing 3 mg of 6-methylnicotine. Each subject used the 6-methylnicotine pouch in the same manner as a nicotine pouch, by placing the pouch inside the mouth and adjacent to the lip and gum.
[3] = oral dissolvable film containing 1.6 mg of 6-methylnicotine, placed inside the cheek, compared to a film containing 2 mg of nicotine; four volunteer subjects, self-reported
Method: Four volunteer subjects were provided with an oral dissolvable film according to the disclosure containing 1.6 mg of 6-methylnicotine and an oral dissolvable film containing 2 mg of nicotine. Each subject placed the nicotine strip against the inside of their cheek and noted their physiological response. Subjects abstained from nicotine or tobacco usage for 1 hour after consuming the nicotine strip, then placed the 6-methylnicotine strip according to the disclosure against the inside of their cheek and noted their physiological response.

Cc1ccc([C@@H]2CCCN2C)cn1 (stereo in doubt) [6-methylnicotine]
blood pressure following usage of a 6-methylnicotine pouch versus a nicotine pouch [1]: No significant difference
physiological effect, such as a "head rush" experienced during pouch usage ([2]; in vivo, po): more potent physiological effect
desire to use nicotine- or tobacco-based products after use of the pouch ([2]; oral pouch containing 3 mg of 6-methylnicotine, six volunteer subjects who regularly use 8 mg nicotine pouches, self-reported): zero desire to use nicotine- or tobacco-based products
physiological response (as a perceived "head rush") [3]: stronger physiological response
